Values of other authors in patent US7014866B2, “High dose solid unit oral pharmaceutical dosage form of amorphous nelfinavir mesylate and process for making same” (Hoffmann-La Roche Inc., priority 2001, dated 2006).
Structures can show the parent of a compound that is named as a salt.

Settings: water at pH less than or equal to 4

Cc1c(O)cccc1C(=O)N[C@@H](CSc1ccccc1)[C@H](O)CN1C[C@H]2CCCC[C@H]2C[C@H]1C(=O)NC(C)(C)C [Nelfinavir mesylate]
solubility in water: slightly soluble
